#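 Exposure lasted 48 hours, with cells grown in 96-well plates and compounds tested at five concentrations. At the GI50, growth is halved. At the TGI there is no net growth.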
# Tests used:
# Assay in all cases: DTP human tumour cell line panel, 48 h
# [1] = system: 786-0 renal
# [2] = system: A498 renal
# [3] = system: A549 NSCLC
# [4] = system: ACHN renal
# [5] = system: BT-549 breast
# [6] = system: CAKI-1 renal
# [7] = system: CCRF-CEM leukemia
# [8] = system: COLO 205 colon
# [9] = system: DU-145 prostate
# [10] = system: EKVX NSCLC
# [11] = system: HCC-2998 colon
# [12] = system: HCT-116 colon
# [13] = system: HCT-15 colon
# [14] = system: HL-60(TB) leukemia
# [15] = system: HOP-62 NSCLC
# [16] = system: HOP-92 NSCLC
# [17] = system: HS 578T breast
# [18] = system: HT29 colon
# [19] = system: IGROV1 ovarian
# [20] = system: K-562 leukemia
# [21] = system: KM12 colon
# [22] = system: LOX IMVI melanoma
# [23] = system: M14 melanoma
# [24] = system: MALME-3M melanoma
# [25] = system: MCF7 breast
# [26] = system: MDA-MB-231 breast
# [27] = system: MDA-MB-435
# [28] = system: MDA-MB-468 breast
# [29] = system: MOLT-4 leukemia
# [30] = system: NCI-H226 lung
# [31] = system: NCI-H23 lung
# [32] = system: NCI-H460 lung
# [33] = system: NCI-H522 lung
# [34] = system: NCI/ADR-RES ovarian
# [35] = system: OVCAR-3 ovarian
# [36] = system: OVCAR-4 ovarian
# [37] = system: OVCAR-5 ovarian
# [38] = system: OVCAR-8 ovarian
# [39] = system: PC-3 prostate
# [40] = system: RPMI-8226 leukemia
# [41] = system: RXF 393 renal
# [42] = system: SF-268 CNS
# [43] = system: SF-295 CNS
# [44] = system: SF-539 CNS
# [45] = system: SK-MEL-2 melanoma
# [46] = system: SK-MEL-28 melanoma
# [47] = system: SK-MEL-5 melanoma
# [48] = system: SK-OV-3 ovarian
# [49] = system: SN12C renal
# [50] = system: SNB-19 CNS
# [51] = system: SW-620 colon
# [52] = system: T-47D breast
# [53] = system: TK-10 renal
# [54] = system: U251 CNS
# [55] = system: UACC-257 melanoma
# [56] = system: UACC-62 melanoma
# [57] = system: UO-31 renal
smiles,measurement,setting,value
CN(C)CCn1c2ccccc2c2nc3cc4ccccc4cc3nc21,GI50,[1],3.95 µM
same,TGI,[1],16.5 µM
same,GI50,[2],14.7 µM
same,TGI,[2],32 µM
same,GI50,[3],1.02 µM
same,TGI,[3],4.52 µM
same,GI50,[4],1.59 µM
same,TGI,[4],11.5 µM
same,GI50,[5],4.92 µM
same,TGI,[5],18.5 µM
same,GI50,[6],1.28 µM
same,TGI,[6],12.3 µM
same,GI50,[7],6.37 µM
same,TGI,[7],21.1 µM
same,GI50,[8],2.12 µM
same,TGI,[8],10.4 µM
same,GI50,[9],2.65 µM
same,TGI,[9],13.2 µM
same,GI50,[10],3.36 µM
same,TGI,[10],16.2 µM
same,GI50,[11],1.29 µM
same,TGI,[11],2.66 µM
same,GI50,[12],2.08 µM
same,TGI,[12],14.1 µM
same,GI50,[13],1.06 µM
same,TGI,[13],2.47 µM
same,GI50,[14],1.07 µM
same,TGI,[14],2.85 µM
same,TGI,[15],16.4 µM
same,GI50,[16],0.0473 µM
same,TGI,[16],2.12 µM
same,GI50,[17],12.6 µM
same,TGI,[17],39 µM
same,GI50,[18],1.41 µM
same,TGI,[18],3.8 µM
same,GI50,[19],1.63 µM
same,TGI,[19],14.2 µM
same,GI50,[20],1.79 µM
same,TGI,[20],5.45 µM
same,GI50,[21],2.8 µM
same,TGI,[21],15.2 µM
same,GI50,[22],1.16 µM
same,TGI,[22],2.42 µM
same,GI50,[23],2.48 µM
same,TGI,[23],11.1 µM
same,GI50,[24],2.41 µM
same,TGI,[24],8.72 µM
same,GI50,[25],1.29 µM
same,TGI,[25],13.1 µM
same,GI50,[26],2.51 µM
same,TGI,[26],15.3 µM
same,GI50,[27],4.19 µM
same,TGI,[27],16.7 µM
same,GI50,[28],1.26 µM
same,TGI,[28],6.36 µM
same,GI50,[29],2.76 µM
same,TGI,[29],12.4 µM
same,GI50,[30],1.89 µM
same,TGI,[30],6.59 µM
same,GI50,[31],2.86 µM
same,TGI,[31],14.6 µM
same,GI50,[32],1.17 µM
same,TGI,[32],14.5 µM
same,GI50,[33],2.5 µM
same,TGI,[33],14.5 µM
same,GI50,[34],2.62 µM
same,TGI,[34],15.3 µM
same,GI50,[35],4.53 µM
same,TGI,[35],17.2 µM
same,GI50,[36],5.95 µM
same,TGI,[36],22.1 µM
same,GI50,[37],3.73 µM
same,TGI,[37],16.8 µM
same,GI50,[38],1.47 µM
same,TGI,[38],3.54 µM
same,GI50,[39],2.44 µM
same,TGI,[39],13.5 µM
same,TGI,[40],13 µM
same,GI50,[41],2.23 µM
same,TGI,[41],10.2 µM
same,GI50,[42],3.8 µM
same,TGI,[42],16.4 µM
same,GI50,[43],1.8 µM
same,TGI,[43],12 µM
same,GI50,[44],3.01 µM
same,TGI,[44],12.8 µM
same,GI50,[45],8.51 µM
same,TGI,[45],21.5 µM
same,GI50,[46],5.72 µM
same,TGI,[46],18.3 µM
same,GI50,[47],2.88 µM
same,TGI,[47],11.9 µM
same,GI50,[48],3.98 µM
same,TGI,[48],17.2 µM
same,GI50,[49],2 µM
same,TGI,[49],15.9 µM
same,GI50,[50],5.8 µM
same,TGI,[50],18.9 µM
same,GI50,[51],2.08 µM
same,TGI,[51],12.9 µM
same,GI50,[52],3.52 µM
same,TGI,[52],19.4 µM
same,TGI,[53],22.4 µM
same,GI50,[54],2.93 µM
same,TGI,[54],14.1 µM
same,GI50,[55],4.37 µM
same,TGI,[55],16.6 µM
same,GI50,[56],5.13 µM
same,TGI,[56],18.8 µM
same,GI50,[57],0.335 µM
same,TGI,[57],11.6 µM

# Source: PubChem BioAssay (NCI)
